Where “and” joins values, the source holds several entries; their conditions need not be identical. Identical values can stand only once.
Tests used:
thyroxine antibody [1] = experiment: Reference displacement curve, thyroxine, interconverted pipetting of labeled analyte and S-protein (Example XIX); type: binding; conditions: for 10^3 Rate: antibody
Text: This Example illustrates the interconversion of the thyroxine labeled analyte and S-protein where the S-protein is pipetted into the sample well and the labeled analyte is pipetted into the reagent well, in contrast to the preceding example where the reverse arrangement was used. Additionally, this Example illustrates the formulation of two reagent solutions for direct pipetting into the sample and reagent wells of the transfer disc using an automatic pipetter (Centrifichem® model P-500 pipetter). Thirdly, this Example illustrates the enhancement of dynamic range in relation to that obtained in Example XVIII by increasing the concentrations of the antibody and S-protein.
(§1) The following reagents were utilized:
a. Thyroxine-S-peptide labeled analyte: Material prepared in the manner described in Examples I-IV was diluted by a factor of 1:50 with 0.1M sodium acetate buffer of pH 5.0;
b. Antibody: Antiserum was diluted by a factor of 1:30 with 0.1M sodium acetate buffer of pH 5.0;
c. Substrate: Uridine 3'-(α-naphthyl phosphate);
d. S-protein: Sigma purified commercial material was brought to […] in 0.1M sodium acetate buffer;
e. Dye: As in Example XVIII.
f. Standards: As in Example XVIII.
A mixture consisting of 500 ul of the substrate, 100 ul of the dye, and 250 ul of the conjugate was prepared. (Reagent A)
A second solution (Reagent B) was prepared by combining 300 ul of the antibody, reagent, 300 ul of the S-protein and 150 ul of 0.1N. sodium acetate buffer.
The following protocol was utilized for the assay: The standard (20 ul) and 65 ul of de-ionized H2 O were delivered to the sample well of the transfer disc by the sample probe of the P-500 pipetter. The reagent B (50 ul) was delivered to the sample well with the second reagent probe of the pipetter. Reagent A (250 ul) was delivered to the reagent well of the transfer disc with the first reagent probe of the pipetter. All three pipetting operations were done simultaneously in one cycle. The transfer disc was then placed on the CentrifiChem® 400 for analysis. The following settings were utilized for the CentrifiChem®: temperature, 30°; filter, 520 nm; T0, 10 seconds; T, 2 minutes; Abs, 3.0 u; Blank, hold; test mode, Term; print out, Abs; concentration factor, 0; test code, 0.

thyroxine antibody [2] = experiment: Reference displacement curve, thyroxine vs thyroxine-S-peptide, colorimetric, CentrifiChem 500 (Example XVIII); type: binding; conditions: for Rate: antibody
Protocol: This Example illustrates the generation of a reference displacement curve for determination of unknown concentrations of the analyte thyroxine where a colorimetric substrate is utilized along with a centrifugal fast analyzer.
as §1
a. Thyroxine S-peptide labeled analyte: Material prepared in the manner described in Examples I-IV was diluted by a factor of 1:400 with 0.1M sodium acetate buffer of pH 5.0;
b. Antibody: Antiserum was diluted by a factor of 1:300 with 0.1M sodium acetate buffer of pH 5.0;
c. Substrate: Uridine 3'-α-naphthyl phosphate;
d. S-protein: Sigma purified commercial material was brought to 2.5×10^-6 M in 0.1M sodium acetate buffer;
e. Dye: The 1,5-naphthalene disulfonic acid stabilized salt of diazo-psulfanilic acid (25 mg.) was dissolved in 1 ml of 0.1N HCl;
f. Standards: Thyroxine standards at concentrations of 0, 40, 80, 120, and 200 ng/ml were made up in a human serum containing solution.
The following settings were utilized on the CentrifiChem° 500 centrifugal fast analyzer: rotor temp, 30°; filter, 520 nm; To, 10 sec; t, 2 min; ABS 1.0 u; Blank, hold; test mode, Term; Print out, ABS; conc. factor, 0; test code 0.
The standard (20 ul), antibody and polypeptide labeled analyte were pipetted into the sample wells of channels 3 to 14 of the transfer disc. A mixture of 5 ul of the dye, 300 ul of substrate, and 20 ul of S-protein, was pipetted into the corresponding reagent wells along with 10 ul of acetate buffer. The loaded transfer disc was placed on the rotor, and the instrument was spun. […]

thyroxine antibody [3] = experiment: Effect of pH on immunoreactivity in the assay of thyroxine; type: binding; conditions: pH from 5 to about 7
Text: The effect of pH on the assay should likewise be considered. […] While the naphthyl phosphate substrate described herein may be suitably used at a pH of 5, the preferred umbelliferone-type substrate needs a pH in the range of about 6 to about 8 for useful operation in the […] mode. Sensitivities in pH can perhaps be overcome by changing the charge characteristics of the labeled analyte, as by incorporating more basic groups on the analyte molecule. Also, the use of a more avid antisera for thyroxine should be helpful. It may also be helpful to modify the linking chemistry (e.g.--the site, type of linking groups).

thyroxine antibody [4] = experiment: Reference displacement curve, thyroxine vs thyroxine-S-peptide, fluorogenic substrate (Example XVII); type: binding; conditions: for Rate: antibody
Protocol: This Example illustrates the generation of a reference displacement curve using thyroxine-S peptide as the labeled analyte and 5'-0-acetyl uridine-3'-(4 methylumbelliferone-7-yl phosphate) as a fluorogenic substrate. The following reagents were prepared:
a. Thyroxine-S-Peptide labeled analyte: Material prepared as described in Examples I-IV, was diluted by a factor of 1:2000 in 0.1M sodium acetate buffer of pH 5.0.
b. Antibody: Antiserum was diluted by a factor of 1:2000 using 0.1M sodium acetate buffer of pH 5.0;
c. S-Protein: Purified material was brought to 2×10^-5 M using 0.1M sodium acetate buffer of pH 5.0;
d. Substrate: Seventeen milligrams of 5'-0-acetyl-2'-0-(tetrahydropyran-2-yl) uridine 3'-(4 methylumbelliferone-7-yl ammonium phosphate was stirred in 0.01HCl for 45 minutes and then extracted with ether. Fifty ml of 0.01M sodium acetate buffer, of pH 5, was then added to give the substrate solution;
e. Thyroxine antibody standards: Thyroxine solutions were freshly prepared to provide thyroxine concentrations of 0 ng/ml, 30 ng/ml, 60 ng/ml, 120 ng/ml, and 240 ng/ml in an aqueous medium containing human serum.
Seventy-five microliters of the standard thyroxine solution was pretreated with 20 ul of 0.5N sodium hydroxide […] at room temperature. One hundred microliters of the antibody and 300 ul of thyroxine-S peptide labeled analyte were then added, and the mixture was incubated for 30 minutes at room temperature. A mixture consisting of 1.8 ml of substrate and 100 ul S-protein was then added. After incubating for 5 minutes, the rate of increase of fluorescence was monitored over a 10 minute period. An Aminco Filter Fluorometer (Model J4-7440) equipped with an automatic 20 sample changer (Model 047-67059) was utilized with excitation at 325 nm and emission at 440 nm. The data points were taken for each sample at times 0, 5, and 10 minutes by an automatic data acquisition system. Table 7 summarizes the results:
In order to obtain a displacement curve, the data for duplicate points are averaged; and the % bound fraction (% B/Bo) is calculated from the equation: [formula] where Rate Bn is the rate corresponding to a non-zero standard and Rate Bo is that corresponding to the zero standard solution.

RNase 1-118 = conditions: combined with RNase 1-118; cited from earlier work

## N[C@@H](Cc1cc(I)c(Oc2cc(I)c(O)c(I)c2)c(I)c1)C(=O)O [thyroxine]
Thyroxine antibody [1]; 0-200 ng/ml
  spread in rate covering the range of standard concentrations: 12 milliabsorbance units/min.
  spread in rate relative to Example XVIII: about 4 times
Thyroxine antibody [1]; standard 40 ng/ml
  10^3 Rate: 57.8 a.u./min. and 58.3 a.u./min.
Thyroxine antibody [1]; standard 80 ng/ml
  10^3 Rate: 60.4 a.u./min. and 59.5 a.u./min.
Thyroxine antibody [1]; standard 120 ng/ml
  10^3 Rate: 62.0 a.u./min. and 64.8 a.u./min.
Thyroxine antibody [1]; standard 200 ng/ml
  10^3 Rate: 65.3 a.u./min.
Thyroxine antibody [2]; 0 to 200 ng/ml
  rate response between the 0 standard and 200 ng/ml standard: 3.5 m.a.u./min.
Thyroxine antibody [2]; standard 40 ng/ml
  Rate: 0.0208 a.u./min and 0.0222 a.u./min
Thyroxine antibody [2]; standard 80 ng/ml
  Rate: 0.0217 a.u./min and 0.0218 a.u./min
Thyroxine antibody [2]; standard 120 ng/ml
  Rate: 0.0224 a.u./min
Thyroxine antibody [2]; standard 200 ng/ml
  Rate: 0.0230 a.u./min
Thyroxine antibody [3]
  immunoreactivity as the pH is increased: immunoreactivity is decreased
Thyroxine antibody [4]; thyroxine standard 30 ng/ml
  Rate: 13.00 mv/min and 13.57 mv/min
Thyroxine antibody [4]; thyroxine standard 60 ng/ml
  Rate: 13.30 mv/min and 13.40 mv/min
Thyroxine antibody [4]; thyroxine standard 120 ng/ml
  Rate: 13.68 mv/min
Thyroxine antibody [4]; thyroxine standard 240 ng/ml
  Rate: 14.15 mv/min and 14.17 mv/min
Thyroxine antibody [4]; standard 30 ng/ml
  % B/B0 (% bound fraction): 67%
  Rate (average of duplicates): 13.28 mv/min
Thyroxine antibody [4]; standard 60 ng/ml
  % B/B0 (% bound fraction): 64%
  Rate (average of duplicates): 13.35 mv/min
Thyroxine antibody [4]; standard 120 ng/ml
  % B/B0 (% bound fraction): 51%
  Rate (average of duplicates): 13.68 mv/min
Thyroxine antibody [4]; standard 240 ng/ml
  % B/B0 (% bound fraction): 32%
  Rate (average of duplicates): 14.16 mv/min

## tetradecapeptide 111 to 124: synthesized tetradecapeptide corresponding to residues 111 to 124 of the original RNase (EGNPYVPVHFDASV; UniProt P61823 137-150, looked up, fragment)
RNase 1-118
  recovery of catalytic activity of RNase: essentially the full catalytic activity of RNase was recovered

Source: US4785080A, “Labeled analytes” (Baker Instruments Corporation, priority 1985, dated 1988)
